Results taken from patent US6410249B1, “Odorant receptors” (priority 1999, dated 2002).

Columns and labels:
receptor 5.24 = target: T1, receptor 5.24 (Carassius auratus, UniProt Q9PW88); assay: IP3 accumulation in receptor 5.24-expressing HEK 293 cells; assay type: cell-based, goldfish; conditions: varying concentrations
T1 construct: The receptor 5.24 full length cDNA detects 1-2 bands in genomic DNA blots; expressed in transfected cells; host or cells: HEK 293 cells expressing SV40 large T antigen (293-TSA)
T1 sequence (Q9PW88 25-877): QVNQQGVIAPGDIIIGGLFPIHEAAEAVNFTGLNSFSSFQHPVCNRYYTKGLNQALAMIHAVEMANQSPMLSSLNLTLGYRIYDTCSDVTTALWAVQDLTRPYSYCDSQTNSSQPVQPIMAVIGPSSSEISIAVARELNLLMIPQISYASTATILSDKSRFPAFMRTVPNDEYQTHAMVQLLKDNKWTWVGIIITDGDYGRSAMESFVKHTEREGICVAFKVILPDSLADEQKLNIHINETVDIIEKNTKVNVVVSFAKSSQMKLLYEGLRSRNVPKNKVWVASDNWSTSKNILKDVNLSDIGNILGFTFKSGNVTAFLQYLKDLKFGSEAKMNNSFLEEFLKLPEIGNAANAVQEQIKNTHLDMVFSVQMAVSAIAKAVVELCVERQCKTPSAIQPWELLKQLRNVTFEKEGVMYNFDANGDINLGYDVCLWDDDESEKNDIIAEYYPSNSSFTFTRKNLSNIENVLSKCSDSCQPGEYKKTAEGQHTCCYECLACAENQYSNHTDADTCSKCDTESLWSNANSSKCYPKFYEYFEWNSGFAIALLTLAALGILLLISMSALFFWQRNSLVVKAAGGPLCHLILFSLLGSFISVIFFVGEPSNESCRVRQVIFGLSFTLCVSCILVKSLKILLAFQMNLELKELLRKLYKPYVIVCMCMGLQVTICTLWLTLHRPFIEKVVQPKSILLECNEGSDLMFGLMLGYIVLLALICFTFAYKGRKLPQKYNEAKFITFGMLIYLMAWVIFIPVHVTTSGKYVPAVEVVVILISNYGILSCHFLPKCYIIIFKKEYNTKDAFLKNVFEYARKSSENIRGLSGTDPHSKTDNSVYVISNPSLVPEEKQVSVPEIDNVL
Text: High-Affinity Binding of Radiolabeled L-Arginine to the Cloned Goldfish Odorant Receptor. To determine the affinity of the cloned goldfish amino acid receptor for basic amino acids, we characterized the ligand-receptor interaction by radiolabeled ligand binding to receptors expressed in mammalian cells. Human embryonic kidney (HEK) 293 cells were transfected with expression plasmids containing the receptor 5.24 cDNA insert. […] We next wished to determine what second messenger pathway receptor 5.24 couples to in HEK 293 cells. Control cells or cells expressing receptor 5.24 were exposed to varying concentrations of arginine and assayed for the accumulation of IP3 and cAMP.
IP3 and cAMP Measurements. For measurements of IP3 and cAMP, cell lines 5.24-20 and 2.2-9 (negative control) were plated at densities of 3.5×10^5 cells/well in 24 well plates and incubated overnight in DMEM containing 10% FBS. All subsequent manipulations prior to reaction termination were performed at 37° C. in 5% CO2. […] IP3 levels were determined by a radioreceptor competition assay (Dupont NEN). For cAMP measurements, after the 3 hour amino acid-free preincubation cells were washed once with PBS, preincubated for 15 min in PBS containing 0.5 mM IBMX, and exposed to odorants in 400 μl PBS/0.5 mM IBMX for 30 min. cAMP levels were determined by radioimmunoassay (DuPont NEN).

[1] = tested on: goldfish olfactory neurons; assay: multi-unit recordings from the goldfish olfactory epithelium; assay type: cell-based; conditions: 100 μM

N=C(N)NCCC[C@H](N)C(=O)O [L-Arginine]
IP3 accumulation, in words (receptor 5.24): specific increase in IP3 | locations with spontaneous activity that responded [1]: 25 out of 28
